Test results: patent EP0667868B1, “CEPHEM COMPOUNDS” (FUJISAWA PHARMACEUTICAL CO., LTD., priority 1993, dated 1995)
≈ marks a conversion by molar mass, not a printed value.

Key:
[1] = tested on: S. aureus; test: Minimal inhibitory concentration, two-fold agar-plate dilution method; assay type: cell-based; settings: Staphylococcus aureus, HI-agar, 37°C for 20 hours
Protocol: (§1) In vitro antibacterial activity was determined by the two-fold agar-plate dilution method as described below.
(§2) One loopful of an overnight culture of each test strain in Trypticase-soy broth (10^8 viable cells per ml) was streaked on heart infusion agar (HI-agar)containing graded concentrations of representative test compound, and the minimal inhibitory concentration (MIC) was expressed in terms of µg/ml after incubation at 37°C for 20 hours.

[2] = tested on: H. influenzae; test: as above; assay type: cell-based; settings: Haemophilus influenzae, HI-agar, 37°C for 20 hours
Protocol: as §1, §2

[3] = tested on: E. coli; test: as above; assay type: cell-based; settings: Escherichia coli, HI-agar, 37°C for 20 hours
Protocol: as §1, §2

[4] = Urinary excretion after oral administration (disc-plate diffusion bioassay); assay type: in vivo, Male JCL SD strain rats; settings: rat; rats, 20 mg /kg oral, suspended in 0.5% methyl cellulose; urine 0 to 6 and 6 to 24 hours; Bacillus subtilis ATCC 6633 as test organism; read-out: Urinary recovery in 24 hours
Protocol: Male JCL SD strain rats (age, 6-7 weeks) were used. Test compound was suspended in 0.5% methyl cellulose solution. The rats were starved overnight before dosing with 20 mg /kg. Urine samples were collected at 0 to 6 and 6 to 24 hours after oral administration were measured by the disc-plate diffusion method using Bacillus subtilis ATCC 6633 as test organism and sodium citrate agar (0.8% sodium citrate, 0.5% polypeptone, 0.3% beef extract and 1.0% agar) as the test medium. The plate were incubated at 37°C for 18 hours and the zone of inhibition were measured.

| SMILES | MIC [1] [µg/mL] | MIC [2] [µg/mL] | MIC [3] [µg/mL] | dose excreted at 24 h [4] [%] |
| --- | --- | --- | --- | --- |
| Nc1nc(/C(=N/O)C(=O)N[C@@H]2C(=O)N3C(C(=O)O)=C(SCc4ccncc4)CS[C@H]23)cs1 [Comparative (1), 7β-[2-(2-Aminothiazol-4-yl)-2-(Z)-(hydroxyimino)-acetamido]-3-[(4-pyridyl)methylthio]-3-cephem-4-carboxylic acid] | 0.143 (≈ 0.29 µM) | 0.067 (≈ 0.136 µM) | 0.061 (≈ 0.124 µM) | – |
| Cc1nnsc1CSC1=C(C(=O)O)N2C(=O)[C@@H](NC(=O)/C(=N\O)c3csc(N)n3)[C@H]2SC1 [Comparative (2), 7β-[2-(2-Aminothiazol-4-yl)-2-(Z)-(hydroxyimino)-acetamido]-3-[(4-methyl-1,2,3-thiadiazol-5-yl)methylthio]-3-cephem-4-carboxylic acid] | 0.167 (≈ 0.325 µM) | 0.118 (≈ 0.23 µM) | 0.072 (≈ 0.14 µM) | – |
| Nc1nc(/C(=N/O)C(=O)N[C@@H]2C(=O)N3C(C(=O)O)=C(SCc4cn[nH]c4)CS[C@H]23)cs1 [(3), 7β-[2-(2-Aminothiazol-4-yl)-2-(Z)-(hydroxyimino)-acetamido]-3-[(pyrazol-4-yl)methylthio]-3-cephem-4-carboxylic acid] | 0.23 (≈ 0.478 µM) | 0.129 (≈ 0.268 µM) | 0.033 (≈ 0.0685 µM) | 50 |
